Earlier results as cited in patent US20140328949A1, “ELECTROCHEMICALLY GENERATED ANTIMICROBIAL SODIUM HYDROXIDE SOLUTION” (priority 2013, published 2014).

System: hairy foot warts
Settings: for efficacy of footbath treatment against hairy foot warts: footbaths, formalin 5%, zinc sulfate 3× footbaths, spread and mild lesions

Compound | efficacy against more serious hairy foot wart lesions (3× footbaths, 1990 study) | efficacy of footbath treatment against hairy foot warts
O=S(=O)([O-])[O-].[Zn+2] [Zinc sulfate] | ineffective | effective at controlling the spread of hairy foot warts and treating mild lesions
O=S(=O)([O-])[O-].[Cu+2] [copper sulfate, Copper sulfate] | – | not an effective treatment
C=O [formalin] | – | effective in controlling hairy foot wart outbreaks
